Results as given in PMC3836372 (Biochemical and biophysical research communications, 2013).

Target: BmorOR1·BmorOrco (Bombyx mori, UniProt Q5WA61, P178A)
Format: cell-based
Settings: agonist; co-expressed with BmorOrco; 0.1% DMSO; -80 mV

two-electrode voltage clamp, Xenopus oocytes, dose-response of odorant-induced c: the effect on P178A-BmorOR1 was moderate
SMILES: CCC/C=C\C=C\CCCCCCCCCO [bombykol, (10E,12Z)-hexadecadien-1-ol]
